Test results as given in patent US20250361267A1, “CHIMERIC COMPOUND FOR DEGRADING CYCLOPHILIN A, PREPARATION METHOD THEREFOR, AND USE THEREOF” (INSTITUTE OF MICROBIOLOGY, CHINESE ACADEMY OF SCIENCES, priority 2022, published 2025).

Columns and labels:
CypA [1] = target: T1, CypA (Homo sapiens, UniProt P62937); assay: CypA degradation in A549 cells by Western Blot; assay type: cell-based; details: A549 cell line
T1 construct: A549 cells in the logarithmic phase were collected; endogenous in cells; host or cells: A549
T1 sequence (P62937 whole entry): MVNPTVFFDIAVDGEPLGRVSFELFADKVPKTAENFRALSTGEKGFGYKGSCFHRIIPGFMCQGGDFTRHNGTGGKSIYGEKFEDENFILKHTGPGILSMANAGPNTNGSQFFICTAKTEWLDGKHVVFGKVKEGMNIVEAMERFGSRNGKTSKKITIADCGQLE
Description: (§1) (1) A549 cells in the logarithmic phase were collected, the concentration of the cell suspension was adjusted, and 100 μL was added per well. The cells to be tested were plated to a density of 10^3 to 10^4 cells/well and incubated at 37° C. under 5% CO2 until the bottom of the wells was covered by a single layer of cells.
(§2) (2) Different concentrations of the compound represented by Formula I were added: 0, 10, 10^2, 10^3, 10^4 and 10^5 nM/well, with 3 replicate wells set, and incubated at 37° C. under 5% CO2 for 12 hours.
(1) The treated cells were scraped off from the culture medium, suspended thoroughly, and then collected by centrifugation at 300 g for 5 minutes. After washing with PBS once, the PBS was discarded.
(2) 100 μL of 2× Loading Buffer was added to each sample, shaken thoroughly to mix well, denatured at 100° C. for 5 minutes, and stored at −20° C. after mixing well or directly used for Western Blot detection. The Formula of 5× Loading Buffer was as follows: 250 mM Tris-HCl (pH 6.8), 10% (W/V) SDS, 0.5% (W/V) bromophenol blue, 50% (V/V) glycerol, 5% (W/V) β-mercaptoethanol (2-ME). […]
2) Sample preparation: protein samples were prepared according to experimental requirements, centrifuged, mixed well, and loaded into the loading wells of SDS-PAGE gel. The loading volume was adjusted appropriately according to the protein quantification results. […]

CypA [2] = target: CypA (Mus musculus, UniProt P17742); assay type: in vivo, C57BL/6 mice; details: IBV-infected mice, 10 mg/kg/day, 7 days after infection
Chain of CypA (Mus musculus, UniProt P17742) (P17742 whole entry): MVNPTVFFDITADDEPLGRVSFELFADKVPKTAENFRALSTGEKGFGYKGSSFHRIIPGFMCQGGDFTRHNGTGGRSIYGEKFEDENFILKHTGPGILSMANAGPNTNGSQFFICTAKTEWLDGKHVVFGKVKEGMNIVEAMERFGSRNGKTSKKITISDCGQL

A549 cells [3] = assay: Effect on A549 cell activity by CCK-8 method; assay type: cell-based; details: 0 to 10^5 nM, 12 hours
Description: as §1, §2
(1) 10 μL CCK-8 reagent was added to the above cells in each well and reacted for 2 h.
(2) The incubation was terminated, and the culture medium in the wells was carefully aspirated.
(3) The absorbance of each well was measured using a microplate reader with a wavelength of 450 nm.
(4) The absorbance ratio between the experimental group and the control group was calculated as follows: Cell viability=(Absorbance of the experimental group−Blank control)+ (Absorbance of the control group−Blank control)×100%.

[4] = system: IL-1B, TNF-α, IL-6 and IFN-γ; design: species or system C57BL/6 mice; details: mouse, in vivo
A549 cells [5] = assay: Migration and infiltration of lung cancer cells, Transwell chambers; assay type: cell-based
Description: as §1, with “10^3-10^4” for “10^3 to 10^4”
as §2
The upper chamber of a 24-well cell culture insert ([…] pore size) was coated (no migration) or (invasive) with a matrix (1 mg/mL) and dried at 37° C. for 30 min.
(3) A549/WT and A549/CypA-cells were trypsinized, washed and suspended in serum-free DMEM after treatment with 20 ng/ml TGF-β for 48 h.
(1) DMEM containing 10% fetal bovine serum was added to the lower chamber per approximately 5×10^4 cells inserted in the upper chamber.
(2) After incubation for 6 h (migration) or 24 h (invasion), non-migrating or […] cells residing on the upper part of the insert membrane were removed with a cotton swab.
(3) The cells that migrated to the underside of the membrane were fixed and stained with 2% crystal violet in ethanol.
(4) The stained cells were observed and counted under a Japan Olympus CKX41 microscope.

rheumatoid arthritis = assay: Rat arthritis model (Freund complete adjuvant); assay type: in vivo, Lewis rats; details: rats, 10 mg/kg tail vein three times/week
Description: The BCG vaccine was inactivated in a water bath at 80° C. for 1 h, ground thoroughly with incomplete Freund adjuvant, and mixed well to prepare 15 mg/mL Freund complete adjuvant (FCA). Lewis rats were divided into 4 groups: blank group (PBS), untreated group (UT), treatment group 1 (compound) and treatment group 2 (MTX (methotrexate)), with 5 rats in each group and a body weight of […]. Except for the PBS group, rats were intradermally injected with 0.1 mL of FCA in the right hind paw. On day 14 after injection, rats in treatment group 1 (compound) were injected with the compound (10 mg/kg of body weight, dissolved in 100 μL of PBS) through the tail vein three times/week; rats in treatment group 2 (MTX (methotrexate)) were intraperitoneally injected with methotrexate (1.2 mg/kg of body weight) three times/week.
The circumference of the metatarsophalangeal joint was measured. The circumference of the ankle joint of the left hind paw (on the secondary lesion side) of all rats was measured once before modeling, before administration and 3 weeks after administration, respectively, and the percentage of joint swelling was calculated.
The joint index was determined by joint swelling score before administration (Day 0) and 3 weeks after administration. Scoring was carried out based on the redness and swelling degree of the ankle and toe joints of the front and rear limbs of rats and the affected joint index, as follows: 0 for normal; 1 for the redness and swelling of one joint; 2 for the redness and swelling of two or more joints; 3 for severe redness and swelling of the paw below the ankle joint; 4 for the redness and swelling of the entire paw including the ankle joint and inability to bear weight. The limbs were scored separately, and the cumulative sum of the scores was the joint index.
(1) On the day 21 of administration, rats were euthanized after blood collection. […]
(2) Joint synovial proliferation and the degree of sub-synovial inflammation were observed under a light microscope, and synovial cell proliferation was scored.

IBV-induced pneumonia = system: IBV-induced pneumonia; design: species or system C57BL/6 mice; details: mouse, in vivo

## Cc1ncsc1-c1ccc(C(C)NC(=O)[C@@H]2C[C@@H](O)CN2C(=O)[C@H](NC(=O)COCCCCCOc2cccc(O)c2C(=O)NC(=O)NC2CCCCC2)C(C)(C)C)cc1 (stereo partly drawn) [Formula I]
CypA [1]; 12 hours, Western Blot, read-out: half-degradation concentration on CypA
  DC50: < 100 nM
CypA [1]; WB results
  degradation effect on the CypA protein: clearly observed
CypA [2]
  expression of CypA in mouse lung tissue: significantly reduce
A549 cells [3]
  cell viability: above 80%
[4]
  expression of IFN-γ in the lung tissue: significantly reduce
  expression of IL-1B in the lung tissue: significantly reduce
  expression of IL-6 in the lung tissue: significantly reduce
  expression of TNF-α in the lung tissue: significantly reduce
  lung inflammation: alleviating lung inflammation
A549 cells [5]; Transwell with matrix, 24 h
  infiltration of lung cancer cells: significantly reduce
A549 cells [5]; Transwell, 6 h
  migration of lung cancer cells: significantly reduce
Rheumatoid arthritis; 3 weeks after administration
  joint index of the ankle joint: reduce
  joint swelling: significantly relieve
Rheumatoid arthritis; day 21, HE staining
  inflammation of the ankle joint (ankle pathological scores): alleviate
IBV-induced pneumonia
  lung injury (lung index, pathology, pathological scores): significantly alleviate lung injury
